In patent US8008354B2, “Death receptor sensitizing compounds and methods of use therefor” (Burnham Institute for Medical Research, priority 2006, dated 2011):

Key:
[1] = test system: FLIP; details: previously shown (Kim et al., 2002); cited from earlier work
[2] = test system: PPC-1 cells; test: MTT viability of PPC-1 cells with extrinsic (CH-11, TRAIL) or intrinsic (VP-16, staurosporine) pathway stimuli; assay type: cell-based, human; details: CH-11, TRAIL versus VP-16, STS, MTT 24 hours
Procedure: FIG. 4. Small molecules selectively sensitize to extrinsic pathway stimuli. PPC-1 cells (1×10^4) were seeded overnight in 96 well plates. The next day, cells were treated with increasing concentrations of 6094911, 5809354, 5703229, or 5569100 in combination with increasing concentrations of CH-11 or TRAIL to activate the extrinsic pathway or with VP-16 or staurosporine to activate the intrinsic pathway. Cell viability was measured 24 hours later by MTT assay. Cell viability is expressed as a mean percentage of untreated cells+SD(n=3).
Statistics. Cytotoxicity induced by compounds used in combination with conventional agents (e.g., CH-11, TRAIL, VP-16 and staurosporine) was evaluated for evidence of synergy toxicity by comparing the slopes of the dose-response curves. […]
The 9 compounds identified using anti-FAS antibody screening theoretically could non-specifically sensitize tumor cells to apoptotic stimuli or they could be selective for the extrinsic pathway. […] Accordingly, PPC-1 cells were treated with various concentrations of compounds with or without CH-11, TRAIL, VP-16, or STS, and 24 hours later, cell viability was measured by MTT assays.

Row | Structure (SMILES) | FLIP protein levels [1] | sensitization to extrinsic versus intrinsic pathway stimuli [2]
1 | CC1(C)CC[C@]2(C(=O)O)CC[C@]3(C)[C@H](C(=O)C=C4[C@@]5(C)C=C(C#N)C(=O)C(C)(C)[C@@H]5CC[C@]43C)[C@@H]2C1 [CDDO, 2-cyano-3,12-dioxooleana-1,9-dien-28-oic acid] | reduce FLIP protein levels | –
2 | C[n+]1ccn2c3c(c4cc(C5CCCCC5)ccc42)CCCc31.[I-] [compound 5362611, 8-Cyclohexyl-3-methyl-5,6-dihydro-4H-pyrazino[3,2,1-jk]carbazol-3-ium; iodide] | – | sensitized to both the death receptor (extrinsic) and mitochondrial pathway (intrinsic) stimuli
